Experiment [1] deals with Escherichia coli K12 BW25113. The experiment in a line: MIC by double dilution method, initial bacteria. The settings on record: for MIC: Escherichia coli, BW25113, read-out: MIC0. Type of experiment: cell-based. The method, then:
(§1) Escherichia coli is a bacterium that is most commonly found in the gut of human and animal. It mainly parasitizes in the intestines, and accounts for about 1% of the intestine bacteria. Minimum inhibitory concentration (MIC) of Escherichia coli K12 BW25113 for ten kinds of antibiotics was detected with double dilution method. Escherichia coli K12 BW25113 of 10^5 colony forming unit/ml was cultured respectively in Luria-Bertani (LB) liquid medium separately with each of ten antibiotics at the concentration of ½ MIC at 37° C., and was serially passaged 10 times, so that the MIC of single colony was determined.

For experiment [2], the system named is antibiotic-resistant Escherichia coli (passaged K12 BW25113). The experiment in a line: MIC of single colony after 10 serial passages with antibiotic at 1/2 MIC. Type of experiment: cell-based. To be noted: for MIC: Escherichia coli, BW25113, read-out: MIC10; for MIC10/MIC0: ratio of MIC after to before passage. As for the experimental part: as §1
The test system of experiment [3] is ampicillin-resistant Escherichia coli (AMP-R). Type of experiment: cell-based. As for the experimental part: Bacterium cultures of 20 mL were collected and centrifuged at 8,000 rpm for 5 minutes. The bacterial pellets were washed with equal volume of 0.85% saline solution, suspended in M9 medium containing 10 mM sodium acetate and then adjusted to OD600 of 0.5. […] These mixtures were cultured in a shaker at 200 rpm at 37° C. for 4 h. Then 100 μL of bacterial suspension was used for bacterial plate counting.
To investigate the effect of antibiotic dose on the sensitivity of bacteria to antibiotics by glutamine, 20 mM glutamine and 20, 40, 80, 160, 240, 320 and 400 μg/mL ampicillin were used to treat ampicillin-resistant Escherichia coli for 4 hours, and then bacterial plate counting was conducted. The survival rates of bacteria with and without glutamine were compared at the same antibiotic concentration.
To investigate the effect of exposure time on the killing efficiency, the viable counts of bacteria were counted during 1-8 hours after spiked with 20 mM glutamine and 160 μg/mL ampicillin.
To investigate the effect of glutamine concentration on killing efficiency and the optimum bactericidal concentrations, different concentrations of glutamine were added to 160 μg/mL ampicillin. The number of live bacteria was counted after 4 hours. The survival rate was calculated according to the formula below: viable counts at different concentration of glutamine/viable counts without glutamine×100%.
Single clone of ampicillin-resistant Escherichia coli was selected and inoculated in 100 mL LB medium and cultured at 200 rpm at 37° C. for 16 hours. Bacterial suspension of 20 mL was collected and centrifuged at 8,000 rpm for 5 min. The resulting bacterial pellets were washed with equal volume of 0.85% saline solution, suspended in M9 medium containing 10 mM sodium acetate and then adjusted to […] of 0.5. Aliquots of 5 mL bacterial cells were transferred to test tubes for further application.
The sample was added with 160 μg/mL ampicillin and 0-20 Mm glucose, then cultured in a shaker at 200 rpm at 37° C. for 4 hours. The cell number was counted and survival rate was calculated. […]

Experiment [4] has as its system Escherichia coli K12 BW25113 (control bacteria). The experiment in a line: Viable counts and survival rate of control bacteria. It counts as cell-based. The settings on record: 160 μg/mL ampicillin, without or with 20 mM glutamine, 4 hours. The method, then: The viable counts and survival rate of bacteria were calculated after added with 20 mM glutamine and 160 μg/mL ampicillin for 4 hours.
The viable counts and survival rate of bacteria were calculated after added with 20 mM glutamine and 4 kinds of penicillins (does for control bacteria were: ampicillin 25 μg/mL, penicillin G 200 μg/mL, amoxicillin 20 μg/mL, carbenicillin 100 μg/mL; does for antibiotic resistant bacteria were: ampicillin 320 μg/mL, penicillin G 2560 μg/mL, amoxicillin 512 μg/mL, carbenicillin 320 μg/mL) for 4 hours.
The viable counts and survival rate of bacteria were calculated after added with 20 mM glutamine and antibiotics at the concentration of 8 times of MIC for 4 hours.

For experiment [5], the system named is ampicillin-resistant Escherichia coli biofilm. As to the kind of experiment: Biofilm on PE-50 catheters in vitro, survival rate. Type of experiment: cell-based. The settings on record: 6 hours. The method, then:
(§2) Single clone of ampicillin-resistant Escherichia coli was selected and incubated in LB medium overnight, then transferred into 2 mL fresh LB medium according to the proportion of 1:200 dilutions and transferred to 6 mm ultraviolet sterilized PE-50 catheters. The catheters were inoculated in 1 mL LB at 37 for 24 h. The culture medium was changed every 24 hours for 3 days. The biofilm of ampicillin-resistant bacteria in PE50 catheters were washed with 1 mL sterile phosphate-buffered saline five times to remove loosely adherent cells, and then transferred to 1.5 mL EP tubes.
The test was divided into six groups: saline solution control, 20 mM glutamine, 160 μg/mL ampicillin, 160 μg/mL ampicillin plus 20 mM glutamine, 160 μg/mL ampicillin plus 20 mM glucose, 160 μg/mL ampicillin plus 20 mM glutamine and 20 mM glucose. The catheters were cultured in a shaker at 200 rpm at 37 for 6 hours. The bacterial biofilm was removed from catheters with sonication for 10 minutes. Serial dilutions and spot-plating were performed to determine the cell number. The bacterial survival rate was calculated as: viable counts in treatment group/viable counts in control group×100%.

For experiment [6] the test system is unchanged. As to the kind of experiment: Mouse urinary tract catheter biofilm model, bacterial survival rate in biofilm. The settings on record: mice, tail intravenous injection twice-daily for 3 days; glutamine 100 mg kg−1, glucose 100 mg kg−1, ampicillin 320 mg kg−1 as present. It counts as in vivo. As for the experimental part:
as §2
In vivo experiments in mice, female mice (5 weeks, weighing 18-20 g) received surgical implantation in the urinary tract of PESO catheter tubes. The mice were randomly divided into six groups in 48 h after the surgery, five each group. The six groups included treatment with saline (group 1), 100 mg kg^−1 glutamine (group 2), 320 mg kg^−1 ampicillin (group 3), 100 mg kg^−1 glutamine plus 320 mg kg^−1 ampicillin (group 4), 100 mg kg^−1 glucose plus 320 mg kg^−1 ampicillin (group 5), and 100 mg kg^−1 glutamine and 100 mg kg^−1 glucose plus 320 mg kg^−1 ampicillin (group 6) by tail intravenous injection for 3 days, twice-daily. Catheter tubes were extracted in 24 hours after the last treatment. […] The survival rate was calculated as: viable counts in treatment group/viable counts in control group×100%.

Experiment [7] deals with antibiotic-resistant bacteria in kidneys. As to the kind of experiment: Mouse urinary tract infection model, bacterial content in kidneys. It counts as in vivo. To be noted: mice, tail i.v. twice-daily for 3 days; glutamine 100 mg kg−1, glucose 100 mg kg−1, ampicillin 320 mg kg−1 as present; saline group 16750. As for the experimental part:
In vivo experiments in mice, female mice (5 weeks, weighing 18-20 g) received surgical implantation in the urinary tract of PESO catheter tubes. The mice were randomly divided into six groups in 48 h after the surgery, five each group. The six groups included treatment with saline (group 1), 100 mg kg^−1 glutamine (group 2), 320 mg kg^−1 ampicillin (group 3), 100 mg kg^−1 glutamine plus 320 mg kg^−1 ampicillin (group 4), 100 mg kg^−1 glucose plus 320 mg kg^−1 ampicillin (group 5), and 100 mg kg^−1 glutamine and 100 mg kg^−1 glucose plus 320 mg kg^−1 ampicillin (group 6) by tail intravenous injection for 3 days, twice-daily. Catheter tubes were extracted in 24 hours after the last treatment. To dislodge biofilm cells, catheters were suspended in saline solution with ultrasonic. Serial dilutions and spot-plating were performed to determine the bacterial survival rate in biofilm. The survival rate was calculated as: viable counts in treatment group/viable counts in control group×100%.
Meanwhile, kidneys of mice were homogeneous with appropriate amount of saline. Bacterial content in kidneys was determined by plate counting method.

≈ marks a conversion by molar mass, not a printed value. Read-outs that look alike come from different tables or passages of the source.

On to `CNC1CCCN(c2c(F)cc3c(=O)c(C(=O)O)cn(C4CC4)c3c2OC)C1` (stereo not drawn) [BLFX, balofloxacin], for which, in experiment [1], the MIC was 0.25 µg/mL (≈ 0.642 µM). Moreover, in experiment [2], the MIC is 16 µg/mL and the MIC10/MIC0 stood at 64.
Consider `CC[C@H]1OC(=O)[C@H](C)[C@@H](O[C@H]2C[C@@](C)(OC)[C@@H](O)[C@H](C)O2)[C@H](C)[C@@H](O[C@@H]2O[C@H](C)C[C@H](N(C)C)[C@H]2O)[C@](C)(O)C[C@@H](C)C(=O)[C@H](C)[C@@H](O)[C@]1(C)O` [ER, erythromycin], for which, in experiment [1], the MIC stood at 50 µg/mL (≈ 68.1 µM). Further, in experiment [2], the MIC is 3200 µg/mL and the MIC10/MIC0 is given as 64.
Turning to `CC1(C)S[C@@H]2[C@H](NC(=O)[C@H](N)c3ccccc3)C(=O)N2[C@H]1C(=O)O` [ampicillin], the MIC in experiment [1] was 6.25 µg/mL (≈ 17.9 µM); in experiment [2], 400 µg/mL. Besides, the MIC10/MIC0 in experiment [2] came to 64. Also, the survival rate in experiment [3] (20 μg/mL ampicillin, without or with 20 mM glutamine, 4 hours) is recorded as 99.81%; in experiment [3] (40 μg/mL ampicillin, without or with 20 mM glutamine, 4 hours), 97.27%; in experiment [3] (80 μg/mL ampicillin, without or with 20 mM glutamine, 4 hours), 95.55%; in experiment [3] (160 μg/mL ampicillin without glutamine, 7 hours), 74%; in experiment [3] (160 μg/mL ampicillin without glutamine, after 8 hours), 66.19%; in experiment [3] (160 μg/mL ampicillin, without glucose or with increasing glucose (0-20 Mm), 4 hours), 94.33%. The survival rate in experiment [3] (160 μg/mL ampicillin, without glutamine or with increasing glutamine concentration, 4 hours) stood at 94.33%; in experiment [3] (160 μg/mL ampicillin, without or with 20 mM glutamine, 4 hours), 93.72%; in experiment [3] (240 μg/mL ampicillin, without or with 20 mM glutamine, 4 hours), 86.72%; in experiment [3] (320 μg/mL ampicillin, without or with 20 mM glutamine, 4 hours) it was 83.51%; in experiment [3] (400 μg/mL ampicillin, without or with 20 mM glutamine, 4 hours) it was 67.15%; in experiment [4], 74.22%. Moreover, in experiment [3] (160 μg/mL ampicillin without glutamine, during 1-4 hours), the “viable counts of bacteria” value is reported as “remained unchanged”. Besides, the “elimination of biofilm by single agent” value in experiment [5] (20 mM glutamine or 160 μg/mL ampicillin alone) is on record as “did not eliminate the antibiotic-resistant bacterium biofilm”. In experiment [5] (20 mM glutamine, 160 μg/mL ampicillin, 20 mM glucose as present), the “bacterial survival rate in biofilm (treatment group/saline control)” value was 92.84%. Moreover, the “bacterial survival rate in catheter biofilm in comparison with saline control” value in experiment [6] amounted to 76.81%. For the same molecule, the “bacterial content in kidneys” value in experiment [7] is on record as 9129 cell/g.
Turning to `[H]/N=C(/N)N[C@H]1[C@H](O)[C@@H](O)[C@H](O[C@@H]2O[C@@H](C)[C@](O)(C=O)[C@H]2O[C@@H]2O[C@@H](CO)[C@H](O)[C@@H](O)[C@@H]2NC)[C@@H](N/C(N)=N\[H])[C@@H]1O` [SM, streptomycin], the MIC in experiment [1] came out at 6.25 µg/mL (≈ 10.7 µM). Further, in experiment [2], the MIC turned out to be 400 µg/mL and the MIC10/MIC0 amounted to 64.
As for `CN(C)[C@@H]1C(O)=C(C(N)=O)C(=O)[C@@]2(O)C(O)=C3C(=O)c4c(O)cccc4[C@@](C)(O)[C@H]3C[C@@H]12` [TET, tetracycline], the MIC in experiment [1] was found to be 3.12 µg/mL (≈ 7.03 µM); in experiment [2], 200 µg/mL.
For `CC(C)(O/N=C(\C(=O)N[C@@H]1C(=O)N2C(C(=O)[O-])=C(C[n+]3ccccc3)CS[C@H]12)c1csc(N)n1)C(=O)O` [CAZ, ceftazidime], the MIC is 0.125 µg/mL (≈ 0.229 µM) in experiment [1] and 8 µg/mL in experiment [2].
For `O=C(N[C@H](CO)[C@H](O)c1ccc([N+](=O)[O-])cc1)C(Cl)Cl` [CAP, chloramphenicol], the MIC in experiment [1] was 6.8 µg/mL (≈ 21 µM). In experiment [2], the MIC was determined as 435 µg/mL and the MIC10/MIC0 is 64.
For `NC[C@H]1O[C@H](O[C@H]2[C@H](O)[C@@H](O[C@H]3O[C@H](CO)[C@@H](O)[C@H](N)[C@H]3O)[C@H](N)C[C@@H]2N)[C@H](O)[C@@H](O)[C@@H]1O` [KAN, kanamycin], the MIC was 6.25 µg/mL (≈ 12.9 µM) in experiment [1] and 400 µg/mL in experiment [2]. Moreover, in experiment [2], the MIC10/MIC0 stood at 64.
On to `CCn1cc(C(=O)O)c(=O)c2ccc(C)nc21` [NA, nalidixic acid], for which the MIC in experiment [1] turned out to be 5 µg/mL (≈ 21.5 µM). In experiment [2], the MIC was 320 µg/mL and the MIC10/MIC0 was determined as 64.
In experiment [1] (before passage), gentamicin yielded an MIC0 of 1.25 µg/mL. The MIC10 in experiment [2] (after 10 serial passages in LB with the respective antibiotic at 1/2 MIC, 37° C.) came to 80 µg/mL. The MIC10/MIC0 in experiment [2] is recorded as 64.

Values taken from patent US9962351B2, “Small molecule substance for improving sensitivity of bacteria to antibiotics” (priority 2012, dated 2018).
